The IC50 is the concentration that gives 50% inhibition.

The test system of series [1] is phospho-ERK in A375 (BRAF V600E) xenograft. Nature of the series: A375 mouse xenograft pharmacodynamic assay (tumor phospho-ERK by ELISA). It is filed as in vivo. The conditions noted are these: A375 xenografts in nude female mice, 20 mg/kg oral (gavage), vs vehicle. As for the experimental part: To evaluate the in vivo pharmacodynamic (PD) effects of compounds of Formula I, an A375 (BRAF V600E) xenograft model is employed. Briefly, 10×10^6 A375 tumor cells (ATCC) are prepared in a 1:1 matrigel mix (0.2 mL total volume) and implanted by subcutaneous injection in hind leg of nude female mice. A total of 4 mice each for each dosing group are employed. Treatment is initiated with oral administration (gavage) of test compound or vehicle (20% captisol, 25 mM phosphate, pH2.0) in 0.2 mL volume when average tumor size reaches approximately 300 mg. After a fixed time interval, the tumors are harvested and the phospho-ERK levels are measured by ELISA (Enzyme-linked immunosorbent assay). Treated groups are compared to the vehicle control group to calculate % inhibition.
In general terms: In an ELISA, binding on a coated surface is turned into a signal by an enzyme label.

The test system of series [2] is A375res cells. Nature of the series: Proliferation assay in vemurafenib-resistant melanoma cells A375res. The conditions noted are these: Homo sapiens, 72 h, read-out: absolute IC50 values.
For series [3], the system named is A375res cells.
The target in the next series is T1, human B-Raf V600E (Homo sapiens, UniProt P15056, V600E).
T1 construct: B-RafV600E (residues 433-726 containing V600E mutation) containing an N-terminal purification tag is expressed and purified; made in house
As to the kind of experiment: Enzymatic assay of B-Raf V600E kinase activity (Raf/MEK1 ATPase, coupled PK/LDH, A340). It is filed as biochemical. The conditions noted are these: read-out: Enzyme IC50, nM B-Raf V600E. Here is the method: Test compounds are evaluated for their inhibitory activities against one or more of human wild type B-Raf, human wild type C-Raf, human B-Raf V600E, human B-Raf V600E+T529I or human B-Raf V600E+G468A. T529I is a threonine to isoleucine B-Raf gatekeeper mutation and G468A is a B-Raf secondary mutation at G1403C in exon 11. The enzymatic assays of B-Raf, C-Raf and B-Raf mutations evaluate a property of Raf and MEK1 complex, which in the presence of ATP, catalyzes an enhanced ATP hydrolysis (Rominger, et al, Arch. Biochem. Biophys. 2007, 464: 130-137; US Patent Publication No. 2006/0211073). The ADP formed is monitored by the well-known coupled PK/LDH (pyruvate kinase/lactate dehydrogenase) system in the form of NADH oxidation, which can be monitored and detected spectrophotometrically by absorbance at 340 nm (A340; for principal of the method see Schindler et al, Science, 2000, 289: 1938-1942). Raf activated MEK1 ATPase activity is a property shared by all forms of Raf proteins.
B-RafV600E (residues 433-726 containing V600E mutation) containing an N-terminal purification tag is expressed and purified essentially as described previously (Wan et al, Cell, 2004, 116, 855-867).
Test compounds are evaluated for their inhibitory activities against one or more of wild type B-Raf, wild type C-Raf, B-Raf V600E, B-Raf V600E+T529I and B-Raf V600E+G468A. T529I is a B-Raf gatekeeper mutation and G468A is a B-Raf secondary mutation. The enzymatic assays of B-Raf, C-Raf and B-Raf mutations evaluate a property of Raf and MEK1 complex, which in the presence of ATP, catalyzes an enhanced ATP hydrolysis (Rominger, et al, Arch. Biochem. Biophys. 2007, 464: 130-137). The ADP formed is monitored by the well-known coupled PK/LDH (pyruvate kinase/lactate dehydrogenase) system in the form of NADH oxidation, which can be monitored and detected by absorbance at 340 nm (A340; for principal of the method see Schindler et al, Science, 2000, 289: 1938-1942). Raf activated MEK1 ATPase activity is a property shared by all forms of Raf proteins. In the B-Raf wild type enzymatic assay, the reaction mixture contains 1.2 nM B-Raf, 30 nM MEK1, 1000 uM ATP, 3.5 units (per 100 ul) of PK, 5 units (per 100 ul) of LDH, 1 mM phosphoenol pyruvate (PEP), and 280 uM of NADH. In the C-Raf assay, the reaction mixture contains 0.6 nM C-Raf, 26 nM MEK1, 2000 uM ATP, and the same amount of PK, LDH, PEP and NADH as above. In the B-Raf V600E assay, the reaction mixture contains […] B-Raf V600E, 26 nM MEK1, 200 uM ATP and the same amount of PK, LDH, PEP and NADH as above. In the B-RafV600E+T529I assay, the reaction mixture contains 6.2 nM B-Raf V600E+T529I, 30 nM MEK1, 200 uM ATP and the same amount of PK, LDH, PEP and NADH as above. In the B-Raf V600E+G468A assay, the reaction mixture contains 3.5 nM B-Raf, 30 nM MEK1, 200 uM ATP and the same amount of PK, LDH, PEP and NADH as above. All assays are started by mixing the above mixture with test compound and monitoring at A340 continuously for approximately 5 hr. […] In the aforementioned assays, the enzyme constructs can be screened prior to or after cleavage of the N-terminal purification tag.

T1 sequence (P15056 433-726 V600E): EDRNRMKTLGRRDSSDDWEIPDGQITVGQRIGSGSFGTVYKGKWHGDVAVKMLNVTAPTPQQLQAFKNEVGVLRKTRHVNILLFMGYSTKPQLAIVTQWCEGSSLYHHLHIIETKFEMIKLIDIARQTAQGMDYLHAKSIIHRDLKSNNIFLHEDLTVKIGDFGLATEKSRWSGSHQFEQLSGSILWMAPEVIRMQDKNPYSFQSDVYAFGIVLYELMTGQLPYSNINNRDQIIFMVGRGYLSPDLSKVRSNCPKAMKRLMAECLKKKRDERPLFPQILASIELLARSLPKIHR

Turning to `CNc1ncc2cc(-c3cc(NC(=O)NCCC4(C)CC4)c(F)cc3C)c(C)nc2n1` [Example 24, 1-(2-Fluoro-4-methyl-5-(7-methyl-2-(methylamino)pyrido[2,3-d]pyrimidin-6-yl)phenyl)-3-(2-(1-methylcyclopropyl)ethyl)urea], in series [1], the “Measured pERK inhibition 2 h post dose” value came to 88% inhibition. Besides, the half-maximal inhibitory concentration (IC50) was 15 to 1100 nM in the series on A375res cells [2] and < 150 nM at human B-Raf V600E. Further, in the series on A375res cells [3], the “IC50 shift A375 to A375res” value is 0.6-1.9 fold.
For `CNc1ncc2cc(-c3ccc(F)c(NC(=O)NCCC(C)(C)C)c3)c(C)nc2n1` [Example 2, 1-(3,3-Dimethylbutyl)-3-(2-fluoro-5-(7-methyl-2-(methylamino)pyrido[2,3-d]pyrimidin-6-yl)phenyl)urea], the “Measured pERK inhibition 2 h post dose” value in series [1] is 38% inhibition. Further, at human B-Raf V600E, the IC50 was < 150 nM.
As to `CNc1ncc2cc(-c3cc(NC(=O)NCCC(C)(C)C)c(F)cc3C)cnc2n1` [Example 35, 1-(3,3-Dimethylbutyl)-3-[2-fluoro-4-methyl-5-(2-methylaminopyrido[2,3-d]pyrimidin-6-yl)phenyl]urea], the “Measured pERK inhibition 2 h post dose” value in series [1] was 79% inhibition. In addition, the IC50 is 15 to 1100 nM in the series with A375res cells [2] and < 150 nM at human B-Raf V600E. The “IC50 shift A375 to A375res” value in the series on A375res cells [3] is reported as 0.6-1.9 fold.
The corresponding values for `CNc1ncc2cc(-c3cc(NC(=O)NCCC(C)(C)F)c(F)cc3C)cnc2n1` [Example 34, 1-(3-Fluoro-3-methyl-butyl)-3-[2-fluoro-4-methyl-5-(2-methylaminopyrido[2,3-d]pyrimidin-6-yl)phenyl]urea] are 72% inhibition, 15 to 1100 nM, < 150 nM and 0.6-1.9 fold.
On to `CNc1ncc2cc(-c3cc(NC(=O)NCCC(C)(C)C)c(F)cc3F)c(C)nc2n1` [Example 1, 1-(2,4-Difluoro-5-(7-methyl-2-(methylamino)pyrido[2,3-d]pyrimidin-6-yl)phenyl)-3-(3,3-dimethylbutyl)urea], for which, in series [1], the “Measured pERK inhibition 2 h post dose” value was determined as 54% inhibition. In addition, on human B-Raf V600E, the IC50 is < 150 nM.
Turning to `CNc1ncc2cc(-c3cc(NC(=O)NCCC(C)(C)F)c(F)cc3C)c(C)nc2n1` [Example 4, 1-(3-Fluoro-3-methylbutyl)-3-(2-fluoro-4-methyl-5-(7-methyl-2-(methylamino)pyrido[2,3-d]pyrimidin-6-yl)phenyl)urea], the “Measured pERK inhibition 2 h post dose” value in series [1] is 84% inhibition. The IC50 is 15 to 1100 nM in the series with A375res cells [2] and < 150 nM at human B-Raf V600E. Besides, in the series with A375res cells [3], the “IC50 shift A375 to A375res” value was 0.6-1.9 fold.
As to `CCNc1ncc2cc(-c3cc(NC(=O)NCCC(C)(C)F)c(F)cc3C)c(C)nc2n1` [Example 26, 1-(5-(2-(Ethylamino)-7-methylpyrido[2,3-d]pyrimidin-6-yl)-2-fluoro-4-methylphenyl)-3-(3-fluoro-3-methylbutyl)urea], the results for the half-inhibitory concentration (IC50) in the series with A375res cells [2] and at human B-Raf V600E were 15 to 1100 nM and < 150 nM, respectively. For the same compound, the “IC50 shift A375 to A375res” value in the series on A375res cells [3] was 0.6-1.9 fold.
Turning to `Cc1cc(F)c(NC(=O)NCCC(C)(C)C)cc1-c1cc2cnc(NCCN(C)C)nc2nc1C` [Example 17, 1-[5-[2-(2-Dimethylaminoethylamino)-7-methyl-pyrido[2,3-d]pyrimidin-6-yl]-2-fluoro-4-methyl-phenyl]-3-(3,3-dimethylbutyl)urea], the IC50 in the series on A375res cells [2] is 15 to 1100 nM; at human B-Raf V600E it was < 150 nM. Also, the “IC50 shift A375 to A375res” value with A375res cells [3] was 0.6-1.9 fold.
The like results for `CNc1ncc2cc(-c3cc(NC(=O)NCC(O)C(C)(C)C)c(F)cc3C)c(C)nc2n1` (stereo not shown) [Example 15, 1-[2-Fluoro-4-methyl-5-(7-methyl-2-methylamino-pyrido[2,3-d]pyrimidin-6-yl)phenyl]-3-(2-hydroxy-3,3-dimethyl-butyl)urea] were, in that order, 15 to 1100 nM, < 150 nM and 0.6-1.9 fold.
Regarding `CNc1ncc2cc(-c3cc(NC(=O)NCCC(C)(C)C(F)(F)F)c(F)cc3C)c(C)nc2n1` [Example 27, 1-(2-Fluoro-4-methyl-5-(7-methyl-2-(methylamino)pyrido[2,3-d]pyrimidin-6-yl)phenyl)-3-(4,4,4-trifluoro-3,3-dimethylbutyl)urea], the IC50 in the series on A375res cells [2] is 15 to 1100 nM; on human B-Raf V600E it was < 150 nM. Moreover, the “IC50 shift A375 to A375res” value with A375res cells [3] was 0.6-1.9 fold.
The corresponding values for `Cc1cc(F)c(NC(=O)NCCC(C)(C)F)cc1-c1cc2cnc(NC3COC3)nc2nc1C` [Example 25, 1-(3-Fluoro-3-methylbutyl)-3-(2-fluoro-4-methyl-5-(7-methyl-2-(oxetan-3-ylamino)pyrido[2,3-d]pyrimidin-6-yl)phenyl)urea] are 15 to 1100 nM, < 150 nM and 0.6-1.9 fold.
The corresponding values for `Cc1cc(F)c(NC(=O)NCCC(C)(C)F)cc1-c1cc2cnc(N)nc2nc1C` [Example 28, 1-(5-(2-Amino-7-methylpyrido[2,3-d]pyrimidin-6-yl)-2-fluoro-4-methylphenyl)-3-(3-fluoro-3-methylbutyl)urea] are 15 to 1100 nM, < 150 nM and 0.6-1.9 fold.
`COCCNc1ncc2cc(-c3cc(NC(=O)NCCC(C)(C)C)c(F)cc3C)c(C)nc2n1` [Example 5, 1-(3,3-Dimethylbutyl)-3-(2-fluoro-5-(2-((2-methoxyethyl)amino)-7-methylpyrido[2,3-d]pyrimidin-6-yl)-4-methylphenyl)urea]: the “Measured pERK inhibition 2 h post dose” value in series [1] worked out at 77% inhibition. At human B-Raf V600E, the IC50 is < 150 nM.

The values above are taken from US9334267B2, “RAF inhibitor compounds” (Deciphera Pharmaceuticals, LLC, priority 2012, dated 2016).
